IC50 data for one compound are collected here from publication PMC3715805 (International Journal of Molecular Sciences, 2007).

The target of this assay is T1, cyclooxygenase-1 (COX-1) (Ovis aries, UniProt P05979).
T1 sequence (P05979 25-600): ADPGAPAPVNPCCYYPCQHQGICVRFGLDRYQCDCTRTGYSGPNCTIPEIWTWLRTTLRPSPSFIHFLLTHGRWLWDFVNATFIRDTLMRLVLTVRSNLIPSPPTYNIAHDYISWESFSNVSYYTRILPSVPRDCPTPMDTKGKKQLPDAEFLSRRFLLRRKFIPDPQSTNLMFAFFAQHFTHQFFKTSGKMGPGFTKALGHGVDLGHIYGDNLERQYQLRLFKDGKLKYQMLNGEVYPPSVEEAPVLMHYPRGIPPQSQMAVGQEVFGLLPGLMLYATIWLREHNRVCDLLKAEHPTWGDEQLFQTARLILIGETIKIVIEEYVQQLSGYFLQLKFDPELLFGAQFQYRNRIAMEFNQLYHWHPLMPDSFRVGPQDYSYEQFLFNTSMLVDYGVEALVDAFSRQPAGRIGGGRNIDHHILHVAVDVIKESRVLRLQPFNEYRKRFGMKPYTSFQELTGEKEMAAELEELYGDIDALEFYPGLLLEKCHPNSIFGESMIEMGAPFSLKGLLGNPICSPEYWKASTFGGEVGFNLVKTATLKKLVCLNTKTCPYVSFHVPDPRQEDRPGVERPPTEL
Description: O2 consumption. The format is biochemical.

The structures appear in SMILES notation. Some results are limits rather than exact numbers.

By IC50 is commonly meant the concentration needed to halve the response being measured.

Consider `COc1cc(O)c2c(=O)cc(-c3ccc(OC)c(-c4c(O)cc(O)c5c(=O)cc(-c6ccc(O)cc6)oc45)c3)oc2c1` [compound 1, ginkgetin], for which the IC50 was > 100 µM.
